Earlier results in US6962907B2, “Neurologically-active compounds” (The University of Sydney, priority 2001, dated 2005).

Tests used:
[1] = biological target: GABAC receptor (Homo sapiens, UniProt P24046); conditions: cited from earlier work
[2] = system: GABAA receptors; conditions: TPMPA 300 μM; cited from earlier work
[3] = system: GABAB receptor; conditions: dose of 500 μM; cited from earlier work

Chain of GABAC receptor (P24046 22-479): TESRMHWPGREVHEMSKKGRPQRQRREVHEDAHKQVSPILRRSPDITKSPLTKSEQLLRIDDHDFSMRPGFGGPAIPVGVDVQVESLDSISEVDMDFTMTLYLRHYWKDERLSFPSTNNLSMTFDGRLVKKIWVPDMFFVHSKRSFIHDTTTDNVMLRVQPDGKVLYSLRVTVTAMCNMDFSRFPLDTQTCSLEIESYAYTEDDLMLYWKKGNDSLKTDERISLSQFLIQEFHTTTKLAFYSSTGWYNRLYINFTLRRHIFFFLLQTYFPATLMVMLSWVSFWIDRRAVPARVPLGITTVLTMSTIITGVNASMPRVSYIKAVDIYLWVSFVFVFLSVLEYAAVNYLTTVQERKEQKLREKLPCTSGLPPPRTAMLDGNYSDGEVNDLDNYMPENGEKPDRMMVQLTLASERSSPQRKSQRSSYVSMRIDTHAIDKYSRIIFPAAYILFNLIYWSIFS

CP(=O)(O)C1=CCNCC1 [TPMPA]
selectivity for GABAC than GABAA receptors [1]: 100 times | selectivity for GABAC than GABAB receptors [1]: 500 times | reduction of the current produced by GABA (10 μM) [2]: 67% | activation of the GABAB receptor [3]: about 30%
